Test results: patent publication US20220023269A1, “Methods Of Treating Diabetes In Severe Insulin-Resistant Diabetic Subjects” (Balticgruppen Bio AB, priority 2018, published 2022)

Assays:
CBA mice on HFD [1] = experiment: Arginine-stimulated insulin secretion; type: in vivo; settings: 0.8 mg/g in HFD, 11 w; arginine 1 g/kg i.p.
Description: Arginine-stimulated insulin secretion was determined following i.p. injection of arginine (SIGMA #A5131) (1 g/kg body weight) in non-fasted 21 weeks old CBA mice that had been on HFD or test material-HFD (0.8 mg/g) for 11 w. Blood glucose was measured using Glucometer (Ultra 2, One Touch) and plasma insulin analysed via the ultrasensitive mouse insulin ELISA kit (Chrystal Chem Inc. #90080). Area under the Curve (AUC) was calculated according to the trapezoid rule.

[2] = tested on: diet-induced obese C57BL/6J mice; experiment: Combination therapy AMPK activator + SGLT2 inhibitor in DIO mice; type: in vivo; settings: 2 weeks oral gavage, Compound 1 75 mg/kg, canagliflozin 10 mg/kg
Description: Male C57BL/6J mice, 8 weeks of age were purchased from Jackson, Charles River Laboratories, Inc. (Germany). All animals were housed in the Umeå University animal facility (Umeå Centre for Comparative Biology; UCCB) with a 12:12 hour light-dark cycle (lights on at 6 a.m.) and a constant temperature of 21° C. The animals were ear marked with a unique identification number, and groups of 5 mice were housed in transparent polycarbonate cages that comply with the requirements of the Code of Practice for the housing and care of animals used in scientific procedures. Wood chips were used as bedding material and environmental enrichment was provided. Animals were allowed to acclimate for 15 weeks to their new environment before the onset of the study. The animals were allowed ad libitum access to tap water throughout the accommodation and study period. During the acclimation period, the animals were allowed a standard pelleted diet (CRM (E) Rodent, Special Diets Services, Scanbur BK, Sweden). At the start of the study, the standard diet was changed to a very high fat diet (vHFD; Cat. No. D12492, Research Diets, Inc.) and this diet was kept throughout the whole study period. All of the procedures were approved by the Local Ethics Review Committee on Animal Experiments, Umeå Region.
23 Weeks old male C57BL/6J mice were fed HFD to promote diet-induced obesity (DIO) and administered once daily by oral gavage; vehicle (phosphate buffer pH 7.3, 2% w/v methyl cellulose; n=11), canagliflozin 10 mg/kg (n=14), Compound 1 at 75 mg/kg (n=14) and the combination of canagliflozin 10 mg/kg and Compound 1 at […] (n=15). After 2 weeks of treatment, fasted (6 hour) blood glucose and plasma insulin levels (determined in tail vein blood samples) were analysed. Food intake and weight were monitored throughout the study.
Blood samples were collected from the tail vein in Potassium-EDTA vials and plasma was separated by centrifugation and stored at −20° C. until assayed. Plasma insulin was determined with mouse insulin ELISA (Ultra Sensitive Mouse insulin ELISA Kit). Glucose concentrations were analysed in tail vein blood using a OneTouch® Ultra®2 Blood Glucose Meter (LifeScan, Inc).
Results shown in the figures are expressed as means±standard error of the mean (S.E.M.) for the number of animals per group. Statistical significance between the control group and the three treatment groups were analysed by Student's t-test, with P<0.05 considered statistically significant.

CBA mice on HFD [3] = experiment: Crossover HFD / test material-HFD (2 mg/g) at housing and thermoneutral conditions; type: in vivo
Description: 14 weeks old CBA mice were randomised into HFD and test material-HFD (2 mg/g) groups for 2 weeks while housed at 22° C. The two groups were then switched from HFD to test material-HFD and vice versa for an additional 4.5 weeks before transferred from 22° C. to 30° C. (thermoneutrality). After one week at 30° C. the diet was switched again and one week after the switch core body temperature were determined.
Food intake was measured weekly by giving each cage 200 g pellet. After one week, the amount of pellets consumed were calculated and adjusted according to the number of animals/cage. Body weight was measured weekly. Body composition was assessed using EchoMRI.

[4] = tested on: AMPK in primary mouse WT and hIAPPtg islets; experiment: AMPK activation in primary mouse WT and hIAPPtg islets; type: cell-based; settings: 2.5, 5, 10 μM, 2 hours
Description: All cell lines were lysed in 0.1 M Tris-HCl, pH 6.8, 2% SDS, 10 mM sodium fluoride (SIGMA #S7920), 10 mM β-glycerophosphate (SIGMA #G6376), and 1 mM sodium vanadate (SIGMA #72060) and supernatant collected after 1 minute at 14,000 rpm. Islets (human and mouse) were lysed in 0.1 M Tris-HCl, pH 6.8, 2% SDS, protease inhibitor (Roche #04 693 124 001) and phosphatase inhibitor (Roche #04 906 837 001). Right calf muscle, heart, iWAT, and interscapular BAT was crushed in a pestle using liquid nitrogen and homogenised in ice cold RIPA buffer (150 mM sodium chloride (SIGMA #S7653), 1.0% NP40 (USB), 0.5% sodium deoxycholate (SIGMA #D6750), 0.1% SDS, 50 mM Tris pH 8.0, 20 mM sodium pyrophosphate (SIGMA #71515), 10 mM sodium fluoride, 10 mM β-glycerolphosphate, 1 mM sodium vanadate and protease inhibitor cocktail (Roche #04693124001), 1 tablet/10 ml lysis buffer). The supernatant was collected after 2 min at 14,000 rpm. This procedure was repeated until all fat was eliminated and the supernatant was clear, at 4° C. Samples were analysed on 4-15% polyacrylamide gels. Values were normalised toward AMPKα, β-Actin, GAPDH or the respective non-phosphorylated counterpart.
Table 3 contains origin of cell lines, growth conditions and settings for activation of AMPK via the test material. […]

O=C(Nc1nc(=O)n(Cc2ccc(Cl)cc2)s1)c1ccc(Cl)cc1 [test material, 4-chloro-N-[2-[(4-chlorophenyl)methyl]-3-oxo-1,2,4-thiadiazol-5-yl]benzamide]
arginine stimulation of insulin secretion, increase vs HFD (CBA mice on HFD [1]): 2 fold | HOMA-IR [2]: statistically significant (***) reduction | fasted plasma insulin ([2]; 6 hour fast): statistically significant (***) reduction | body weight gain (CBA mice on HFD [3]; 2 mg/g in HFD, day 1-14, housing temperature): gained almost no weight | body weight at thermoneutrality, continued on test material-HFD (CBA mice on HFD [3]; 30° C. from day 49): still averted weight gain | increase in core temperature vs HFD (nonsignificant) (CBA mice on HFD [3]; 30° C. housing): 0.2 °C | core temperature (CBA mice on HFD [3]; 30° C. housing, one week after switch, n=5): 37.9 °C | body weight after switch from HFD to test material-HFD at thermoneutrality (CBA mice on HFD [3]; 30° C., switch at day 57): rapidly started to lose weight | body weight after switch from HFD to test material-HFD (CBA mice on HFD [3]; switch at day 15, housing temperature): rapidly started to lose weight | pAMPKα [4]: directly increased pAMPKα
